Results on 5 molecules are retold here after ChEMBL document CHEMBL5356973 (J Med Chem, 2023).

Active and inactive are the calls of the source. The rule behind the calls is not given here.

In data set [1] the target is T1, Mu-type opioid receptor (Homo sapiens, UniProt P35372). Nature of the data set: Agonist activity at MOR (unknown origin) transfected in CHO cells co-expressing Galphaq15 assessed as increase in calcium mobilization by Fluo-4AM dye based assay. The data set is classed as functional, cell-based. For orientation: Calcium assays in cells follow changes in intracellular calcium, usually with a dye or a luminescent sensor.

Data set [2] addresses T1, Mu-type opioid receptor. Nature of the data set: Agonist activity at MOR (unknown origin) transfected in CHO cells co-expressing Galphaq15 assessed as increase in calcium mobilization by measuring maximal efficacy by Fluo-4AM dye based assay relative to control. The data set is classed as functional, cell-based. To be noted: filed as agonist.
Data set [3] concerns the target T2, Kappa-type opioid receptor (Homo sapiens, UniProt P41145). Nature of the data set: Agonist activity at KOR (unknown origin) transfected in CHO cells co-expressing Galphaq15 assessed as increase in calcium mobilization by Fluo-4AM dye based assay. Type of data set: functional, cell-based.
Data set [4] concerns the target T2, Kappa-type opioid receptor. Nature of the data set: Agonist activity at KOR (unknown origin) transfected in CHO cells co-expressing Galphaq15 assessed as increase in calcium mobilization by measuring maximal efficacy by Fluo-4AM dye based assay relative to control. The data set is classed as functional, cell-based. The following applies: filed as agonist.
Data set [5] deals with T3, Delta-type opioid receptor (Homo sapiens, UniProt P41143). Nature of the data set: Agonist activity at DOR (unknown origin) transfected in CHO cells co-expressing Galphaq15 assessed as increase in calcium mobilization by Fluo-4AM dye based assay. Type of data set: functional, cell-based.
Data set [6] has as its target T3, Delta-type opioid receptor. Nature of the data set: Agonist activity at DOR (unknown origin) transfected in CHO cells co-expressing Galphaq15 assessed as increase in calcium mobilization by measuring maximal efficacy by Fluo-4AM dye based assay relative to control. The data set is classed as functional, cell-based. The following applies: filed as agonist.
Data set [7] can be described thus: Agonist activity at NPFF1R (unknown origin) transfected in CHO cells co-expressing Galphaq15 assessed as increase in calcium mobilization by measuring maximal efficacy by Fluo-4AM dye based assay relative to control. The data set is classed as functional, cell-based. The following applies: Homo sapiens, filed as agonist.
In data set [8] the target is T4, Neuropeptide FF receptor 2 (Homo sapiens, UniProt Q9Y5X5). Nature of the data set: Agonist activity at NPFF2R (unknown origin) transfected in HEK293 cells co-expressing Galphaq15 assessed as increase in calcium mobilization by Fluo-4AM dye based assay. Type of data set: functional, cell-based.
Data set [9] deals with T4, Neuropeptide FF receptor 2. Nature of the data set: Agonist activity at NPFF2R (unknown origin) transfected in HEK293 cells co-expressing Galphaq15 assessed as increase in calcium mobilization by measuring maximal efficacy by Fluo-4AM dye based assay relative to control. The data set is classed as functional, cell-based. The following applies: filed as agonist.
Data set [10] can be described thus: Metabolic stability in mouse plasma assessed as degradation half life at 10 mM measured upto 480 mins by RP-HPLC analysis. Type of data set: ADME, cell-free.
A short description of data set [11]: Metabolic stability in mouse brain homogenate assessed as degradation half life at 10 mM measured upto 480 mins by RP-HPLC analysis. The data set is classed as ADME, tissue-based.
Data set [12] has as its system Mus musculus. Nature of the data set: Antinociceptive activity in Kunming mouse assessed as changes in tail flick latency by measuring maximal possible effect at 26.1 nmol/kg, sc measured after 20 mins by tail-flick test. The data set is classed as functional.
Data set [13] concerns Mus musculus. Nature of the data set: Antinociceptive activity in Kunming mouse assessed as changes in tail flick latency by measuring maximal possible effect at 26.1 nmol/kg, sc measured after 30 mins by tail-flick test. The data set is classed as functional. The following applies: 0.5 h. Background: Thermal pain tests record how soon the animal reacts.
The test system of data set [14] is Mus musculus. Nature of the data set: Antinociceptive activity in Kunming mouse assessed as changes in tail flick latency by measuring maximal possible effect at 26.1 nmol/kg, sc measured after 60 mins by tail-flick test. Type of data set: functional. To be noted: 1 h.
The test system of data set [15] is Mus musculus. Nature of the data set: Antinociceptive activity in Kunming mouse assessed as changes in tail flick latency by measuring maximal possible effect at 26.1 nmol/kg, sc measured after 120 mins by tail-flick test. The data set is classed as functional. The following applies: 2 h.
Data set [16] has as its system Mus musculus. Nature of the data set: Antinociceptive activity in Kunming mouse assessed as changes in tail flick latency by measuring maximal possible effect at 26.1 nmol/kg, sc measured after 240 mins by tail-flick test. The data set is classed as functional. The following applies: 4 h.
The test system of data set [17] is Mus musculus. Nature of the data set: Antinociceptive activity in Kunming mouse assessed as changes in tail flick latency by measuring time duration of antinociceptive effect at 26.1 nmol/kg, sc by tail-flick test. The data set is classed as functional.
For data set [18], the system named is Mus musculus. Nature of the data set: Antinociceptive activity in Kunming mouse assessed as changes in tail flick latency at 26.1 nmol/kg, sc pretreated with naloxone methiodide at 5 nmol, icv for 10 mins followed by compound addition and measured for 360 mins by tail-flick test. Type of data set: functional, organism-based.
Data set [19] has as its system Mus musculus. Nature of the data set: Antinociceptive activity in Kunming mouse assessed as changes in tail flick latency by measuring maximal possible effect at 8.8 nmol/kg, sc measured after 20 mins by tail-flick test. Type of data set: functional.
The subject of data set [20] is Mus musculus. Nature of the data set: Antinociceptive activity in Kunming mouse assessed as changes in tail flick latency by measuring maximal possible effect at 8.8 nmol/kg, sc measured after 30 mins by tail-flick test. Type of data set: functional. To be noted: 0.5 h.
For data set [21], the system named is Mus musculus. Nature of the data set: Antinociceptive activity in Kunming mouse assessed as changes in tail flick latency by measuring maximal possible effect at 8.8 nmol/kg, sc measured after 60 mins by tail-flick test. The data set is classed as functional. The following applies: 1 h.
The subject of data set [22] is Mus musculus. Nature of the data set: Antinociceptive activity in Kunming mouse assessed as changes in tail flick latency by measuring maximal possible effect at 8.8 nmol/kg, sc measured after 120 mins by tail-flick test. Type of data set: functional. To be noted: 2 h.
Data set [23] deals with Mus musculus. Nature of the data set: Antinociceptive activity in Kunming mouse assessed as changes in tail flick latency by measuring maximal possible effect at 8.8 nmol/kg, sc measured after 240 mins by tail-flick test. Type of data set: functional. The following applies: 4 h.
Data set [24] concerns Mus musculus. Nature of the data set: Antinociceptive activity in Kunming mouse assessed as changes in tail flick latency by measuring time duration of antinociceptive effect at 8.8 nmol/kg, sc by tail-flick test. Type of data set: functional.
Data set [25] deals with Mus musculus. Nature of the data set: Antinociceptive activity in Kunming mouse assessed as changes in tail flick latency at 8.8 nmol/kg, sc pretreated with naloxone methiodide at 5 nmol, icv for 10 mins followed by compound addition and measured for 360 mins by tail-flick test. Type of data set: functional, organism-based.

T4 sequence (Q9Y5X5 whole entry): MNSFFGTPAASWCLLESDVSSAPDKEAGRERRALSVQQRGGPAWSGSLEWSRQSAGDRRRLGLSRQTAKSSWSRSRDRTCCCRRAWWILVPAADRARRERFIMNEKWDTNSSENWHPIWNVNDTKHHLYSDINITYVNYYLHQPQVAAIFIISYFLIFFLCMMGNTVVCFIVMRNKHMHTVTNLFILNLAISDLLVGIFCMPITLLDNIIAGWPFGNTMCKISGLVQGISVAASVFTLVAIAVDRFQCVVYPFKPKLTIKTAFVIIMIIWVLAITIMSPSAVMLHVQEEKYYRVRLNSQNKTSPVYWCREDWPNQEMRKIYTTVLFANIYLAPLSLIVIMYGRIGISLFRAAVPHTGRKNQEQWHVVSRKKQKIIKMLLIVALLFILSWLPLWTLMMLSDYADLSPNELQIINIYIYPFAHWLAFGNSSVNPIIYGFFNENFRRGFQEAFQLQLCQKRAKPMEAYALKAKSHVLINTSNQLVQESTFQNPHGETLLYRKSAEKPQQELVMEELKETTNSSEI
T1 sequence (P35372 whole entry): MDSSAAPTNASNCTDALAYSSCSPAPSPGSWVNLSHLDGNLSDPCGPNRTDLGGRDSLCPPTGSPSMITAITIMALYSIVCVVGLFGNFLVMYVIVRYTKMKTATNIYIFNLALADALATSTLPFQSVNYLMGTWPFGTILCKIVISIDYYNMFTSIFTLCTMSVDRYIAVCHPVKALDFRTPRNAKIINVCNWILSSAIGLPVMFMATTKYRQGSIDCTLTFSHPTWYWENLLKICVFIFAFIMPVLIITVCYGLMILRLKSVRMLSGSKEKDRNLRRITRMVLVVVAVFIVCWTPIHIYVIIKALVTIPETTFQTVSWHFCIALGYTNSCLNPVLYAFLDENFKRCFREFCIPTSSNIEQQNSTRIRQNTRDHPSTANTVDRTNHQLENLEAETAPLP
T3 sequence (P41143 whole entry): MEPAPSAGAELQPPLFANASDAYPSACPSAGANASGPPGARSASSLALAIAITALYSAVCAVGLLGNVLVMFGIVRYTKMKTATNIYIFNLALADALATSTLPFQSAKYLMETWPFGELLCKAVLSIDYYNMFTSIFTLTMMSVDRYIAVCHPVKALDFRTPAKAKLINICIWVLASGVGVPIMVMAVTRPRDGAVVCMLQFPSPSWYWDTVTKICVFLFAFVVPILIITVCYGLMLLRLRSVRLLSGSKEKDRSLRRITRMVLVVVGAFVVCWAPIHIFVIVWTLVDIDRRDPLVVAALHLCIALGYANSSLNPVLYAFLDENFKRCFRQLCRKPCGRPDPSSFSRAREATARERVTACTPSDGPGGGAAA
T2 sequence (P41145 whole entry): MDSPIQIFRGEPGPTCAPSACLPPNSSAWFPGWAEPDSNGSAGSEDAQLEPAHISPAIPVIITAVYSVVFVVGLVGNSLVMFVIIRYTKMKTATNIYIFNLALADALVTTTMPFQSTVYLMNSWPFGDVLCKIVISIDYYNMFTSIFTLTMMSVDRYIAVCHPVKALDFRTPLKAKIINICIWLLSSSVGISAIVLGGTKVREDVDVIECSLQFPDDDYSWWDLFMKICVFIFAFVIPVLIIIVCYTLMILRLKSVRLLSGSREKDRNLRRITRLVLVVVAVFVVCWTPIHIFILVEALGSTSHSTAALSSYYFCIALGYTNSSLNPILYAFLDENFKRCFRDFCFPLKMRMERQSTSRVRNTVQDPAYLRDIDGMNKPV

On to `CN1C(=O)CNC(=O)[C@H](N[C@@H](Cc2ccc(O)cc2)C(=O)O)CCCC/C=C\CC[C@@H](C(=O)N2CCC[C@H]2C(=O)N[C@@H](CCC(N)=O)C(=O)N[C@@H](CCCNC(=N)N)C(=O)N[C@@H](Cc2ccccc2)C(N)=O)NC(=O)[C@@H]1Cc1ccccc1`, for which the EC50 (commonly the midpoint of the concentration-response curve) on Mu-type opioid receptor [1] worked out at 92.3 nM; in [3], 503 nM; in data set [5], 58.2 nM; in data set [8] it was 1080 nM. Moreover, the Emax (commonly the maximal effect, on the per cent scale that the assay sets) at Mu-type opioid receptor [2] worked out at 109%; in [4], 128%; in data set [6], 97.5%; in data set [7], 105%; in data set [9], 88.6%. Besides, the figures for the half-life at 10000 µM in [10] and in data set [11] were 0.625 h and 1.95 h, respectively. For the same molecule, the MPE in the data set with Mus musculus [12] worked out at 93%; in the data set with Mus musculus [13] it was 93.7%; in the data set on Mus musculus [14], 77.4%; with Mus musculus [15] it was 73.5%; in the data set with Mus musculus [16], 36%. For the same molecule, the Time with Mus musculus [17] was 360 min. The outcome with Mus musculus [18] was inactive.
For the molecule `CN1C(=O)CNC(=O)[C@H](N[C@@H](Cc2ccc(O)cc2)C(=O)O)CCC/C=C/CC[C@@H](C(=O)N2CCC[C@H]2C(=O)N[C@@H](CCC(N)=O)C(=O)N[C@@H](CCCNC(=N)N)C(=O)N[C@@H](Cc2ccccc2)C(N)=O)NC(=O)[C@@H]1Cc1ccccc1`, the EC50 came to 7.6 nM on Mu-type opioid receptor [1], 273 nM in data set [3], 23.9 nM in data set [5] and 3110 nM in data set [8]. Besides, the Emax was determined as 102% at Mu-type opioid receptor [2]; 96.4% in data set [4]; 98.2% in data set [6]; 91.8% in data set [7]; 118% in data set [9]. In addition, the figures for the half-life at 10000 µM in data set [10] and in [11] were 0.537 h and 1.83 h, respectively. Moreover, the MPE worked out at 89.9% in the data set with Mus musculus [19]; 96.5% in the data set with Mus musculus [20]; 72.1% in the data set with Mus musculus [21]; 74.2% in the data set with Mus musculus [22]; 47.8% in the data set with Mus musculus [23]. Moreover, the Time in the data set on Mus musculus [24] turned out to be 360 min. Moreover, in the data set on Mus musculus [25], the outcome was inactive.
For `CN1C(=O)CNC(=O)[C@@H](N[C@@H](Cc2ccc(O)cc2)C(=O)O)C/C=C/CCCC[C@H](C(=O)N2CCC[C@H]2C(=O)N[C@@H](CCC(N)=O)C(=O)N[C@@H](CCCNC(=N)N)C(=O)N[C@@H](Cc2ccccc2)C(N)=O)NC(=O)[C@@H]1Cc1ccccc1`, the EC50 turned out to be 2900 nM at Mu-type opioid receptor [1], 1230 nM in [3], 8920 nM in [5] and 3760 nM in data set [8]. The maximal effect (Emax) at Mu-type opioid receptor [2] came to 81%; in data set [4], 56.1%; in [6], 99.4%; in data set [7] it was 124%; in [9] it was 40.9%. The results for the half-life at 10000 µM in [10] and in data set [11] were 0.13 h and 1.47 h, respectively. The MPE turned out to be 92.8% in the data set with Mus musculus [19]; 93.6% in the data set on Mus musculus [20]; 79% in the data set with Mus musculus [21]; 71.5% in the data set with Mus musculus [22]; 41.6% with Mus musculus [23]. Further, in the data set with Mus musculus [24], the Time worked out at 360 min. Moreover, in the data set with Mus musculus [25], the result was inactive.
With `CC(C)C[C@H](NC(=O)[C@@H](N)Cc1ccccc1)C(=O)N[C@@H](Cc1ccccc1)C(=O)N[C@@H](CCC(N)=O)C(=O)N1CCC[C@H]1C(=O)N[C@@H](CCC(N)=O)C(=O)N[C@@H](CCCN=C(N)N)C(=O)N[C@@H](Cc1ccccc1)C(N)=O`, the Emax in [7] is 97.9%.
Consider `CN1C(=O)CNC(=O)[C@H](N[C@@H](Cc2ccc(O)cc2)C(=O)O)CCCC/C=C/CC[C@@H](C(=O)N2CCC[C@H]2C(=O)N[C@@H](CCC(N)=O)C(=O)N[C@@H](CCCNC(=N)N)C(=O)N[C@@H](Cc2ccccc2)C(N)=O)NC(=O)[C@@H]1Cc1ccccc1`, for which the EC50 was found to be 1.2 nM at Mu-type opioid receptor [1], 132 nM in data set [3], 13.4 nM in data set [5] and 9770 nM in data set [8]. In addition, the Emax at Mu-type opioid receptor [2] worked out at 84.6%; in data set [4], 100%; in data set [6], 73.8%; in data set [7], 91.9%; in [9], 125%. For the same molecule, the half-life (commonly the time in which the quantity being followed falls by half) at 10000 µM turned out to be 1.01 h in [10] and 2.26 h in [11]. Further, the MPE in the data set on Mus musculus [12] is 91.9%; with Mus musculus [13] it was 92.1%; in the data set with Mus musculus [14], 80.3%; in the data set on Mus musculus [15], 69%; in the data set with Mus musculus [16] it was 42.3%. The Time with Mus musculus [17] came to 360 min. The result in the data set with Mus musculus [18] was inactive.
